Experimental data as given in patent US9931308B2, “Compositions and methods using P-anisaldehyde” (NESTEC S.A., priority 2013, dated 2018).
Read-outs that look alike come from different tables or passages of the source.

Experiments:
[1] = test system: mice; assay: body weight gain in mice with chronic ingestion, high fat diet (FIG. 3); assay type: in vivo; details: mice chronically fed high fat diet containing 0.2 wt % compound vs same diet without
[2] = test system: mice; assay: insulin sensitivity in mice with chronic ingestion, high fat diet (FIG. 4); assay type: in vivo; details: mice chronically fed high fat diet containing 0.2 wt % compound vs same diet without
[3] = test system: mice; assay: short term food intake after a single ingestion in mice (FIG. 5); assay type: in vivo; details: single dose vs sham gavage
[4] = test system: mice; assay: gastric emptying after a single ingestion in mice (FIG. 6); assay type: in vivo; details: single dose vs sham gavage
[5] = target: T1, TRPA1 (Homo sapiens, UniProt O75762); details: known TRPA1 agonist; read-out: EC50 TRPA1 activation; cited from earlier work
T1 sequence (O75762 whole entry, species assumed): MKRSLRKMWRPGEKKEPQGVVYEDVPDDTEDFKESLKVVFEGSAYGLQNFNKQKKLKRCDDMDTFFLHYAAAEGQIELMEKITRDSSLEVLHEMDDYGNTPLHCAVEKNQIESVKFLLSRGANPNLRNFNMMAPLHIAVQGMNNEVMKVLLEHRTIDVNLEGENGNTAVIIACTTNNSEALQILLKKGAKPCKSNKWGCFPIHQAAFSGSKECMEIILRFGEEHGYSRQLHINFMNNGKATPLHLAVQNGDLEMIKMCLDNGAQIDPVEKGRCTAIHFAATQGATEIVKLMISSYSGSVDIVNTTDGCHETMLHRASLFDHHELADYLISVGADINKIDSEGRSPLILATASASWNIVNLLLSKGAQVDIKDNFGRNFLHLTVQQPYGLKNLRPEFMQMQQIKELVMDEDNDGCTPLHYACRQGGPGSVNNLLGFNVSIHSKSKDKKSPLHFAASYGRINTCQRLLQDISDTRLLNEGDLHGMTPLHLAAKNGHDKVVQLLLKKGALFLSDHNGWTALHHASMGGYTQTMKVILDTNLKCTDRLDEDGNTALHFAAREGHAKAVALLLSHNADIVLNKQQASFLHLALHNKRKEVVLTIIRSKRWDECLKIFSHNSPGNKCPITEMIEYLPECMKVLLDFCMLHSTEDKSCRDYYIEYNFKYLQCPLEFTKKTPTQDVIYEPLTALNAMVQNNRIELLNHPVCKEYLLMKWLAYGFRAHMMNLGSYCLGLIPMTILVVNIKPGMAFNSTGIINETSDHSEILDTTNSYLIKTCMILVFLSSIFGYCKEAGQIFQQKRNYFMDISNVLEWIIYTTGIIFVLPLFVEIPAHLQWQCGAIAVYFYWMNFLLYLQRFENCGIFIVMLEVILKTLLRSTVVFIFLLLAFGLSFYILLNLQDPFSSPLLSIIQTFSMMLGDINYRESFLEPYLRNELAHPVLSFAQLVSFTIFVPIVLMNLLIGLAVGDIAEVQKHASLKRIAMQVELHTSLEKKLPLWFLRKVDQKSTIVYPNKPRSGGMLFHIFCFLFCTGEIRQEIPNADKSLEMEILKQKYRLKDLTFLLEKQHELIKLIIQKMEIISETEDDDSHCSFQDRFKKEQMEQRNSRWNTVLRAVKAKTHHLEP

[6] = target: T1, TRPA1; assay: in vitro activation of TRPA1 in cells expressing TRP channels (FIG. 7); assay type: cell-based; details: FIG. 7, circles; read-out: EC-50 TRPA1 activation
[7] = target: T2, TRPV1 (Homo sapiens, UniProt Q8NER1); assay: in vitro activation of TRPV1 in cells expressing TRP channels (FIG. 7); assay type: cell-based; details: FIG. 7, squares; read-out: EC 50 TRPV1 activation
T2 construct: expressed in transfected cells; an “empty” cell control implies recombinant expression
T2 sequence (Q8NER1 whole entry, species assumed): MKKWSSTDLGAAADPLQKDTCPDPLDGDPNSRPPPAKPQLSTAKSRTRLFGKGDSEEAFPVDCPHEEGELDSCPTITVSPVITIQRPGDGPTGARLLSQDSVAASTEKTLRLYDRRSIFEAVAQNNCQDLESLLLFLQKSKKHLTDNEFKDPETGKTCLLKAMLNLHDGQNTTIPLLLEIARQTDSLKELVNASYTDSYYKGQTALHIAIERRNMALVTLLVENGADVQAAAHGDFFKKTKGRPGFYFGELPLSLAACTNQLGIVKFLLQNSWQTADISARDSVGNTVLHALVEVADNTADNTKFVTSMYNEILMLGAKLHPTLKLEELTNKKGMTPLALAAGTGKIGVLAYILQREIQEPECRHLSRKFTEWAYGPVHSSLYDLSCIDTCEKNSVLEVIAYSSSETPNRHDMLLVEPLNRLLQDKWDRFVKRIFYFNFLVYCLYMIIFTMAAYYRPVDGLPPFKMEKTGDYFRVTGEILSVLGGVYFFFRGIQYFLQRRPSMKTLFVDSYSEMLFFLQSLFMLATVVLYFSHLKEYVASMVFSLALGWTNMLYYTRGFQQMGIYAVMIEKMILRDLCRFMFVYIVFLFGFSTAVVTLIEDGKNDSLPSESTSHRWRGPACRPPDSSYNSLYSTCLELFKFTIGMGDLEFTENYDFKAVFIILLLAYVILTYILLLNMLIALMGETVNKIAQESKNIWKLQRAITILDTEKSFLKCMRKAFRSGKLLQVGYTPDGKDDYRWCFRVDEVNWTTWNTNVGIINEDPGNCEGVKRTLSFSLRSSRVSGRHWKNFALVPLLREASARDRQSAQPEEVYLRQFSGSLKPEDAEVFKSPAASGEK

[8] = test system: "empty" cells; assay: in vitro activation on "empty" cells, control (FIG. 7); assay type: cell-based; details: FIG. 7, downward pointing triangles
[9] = target: TRPM8 (Homo sapiens, UniProt Q7Z2W7); assay: in vitro activation of hTRPM8 in cells expressing TRP channels (FIG. 7); assay type: cell-based; set-up: expressed in transfected cells; an “empty” cell control implies recombinant expression; details: FIG. 7, upward pointing triangles
Sequence of TRPM8 (Q7Z2W7 whole entry): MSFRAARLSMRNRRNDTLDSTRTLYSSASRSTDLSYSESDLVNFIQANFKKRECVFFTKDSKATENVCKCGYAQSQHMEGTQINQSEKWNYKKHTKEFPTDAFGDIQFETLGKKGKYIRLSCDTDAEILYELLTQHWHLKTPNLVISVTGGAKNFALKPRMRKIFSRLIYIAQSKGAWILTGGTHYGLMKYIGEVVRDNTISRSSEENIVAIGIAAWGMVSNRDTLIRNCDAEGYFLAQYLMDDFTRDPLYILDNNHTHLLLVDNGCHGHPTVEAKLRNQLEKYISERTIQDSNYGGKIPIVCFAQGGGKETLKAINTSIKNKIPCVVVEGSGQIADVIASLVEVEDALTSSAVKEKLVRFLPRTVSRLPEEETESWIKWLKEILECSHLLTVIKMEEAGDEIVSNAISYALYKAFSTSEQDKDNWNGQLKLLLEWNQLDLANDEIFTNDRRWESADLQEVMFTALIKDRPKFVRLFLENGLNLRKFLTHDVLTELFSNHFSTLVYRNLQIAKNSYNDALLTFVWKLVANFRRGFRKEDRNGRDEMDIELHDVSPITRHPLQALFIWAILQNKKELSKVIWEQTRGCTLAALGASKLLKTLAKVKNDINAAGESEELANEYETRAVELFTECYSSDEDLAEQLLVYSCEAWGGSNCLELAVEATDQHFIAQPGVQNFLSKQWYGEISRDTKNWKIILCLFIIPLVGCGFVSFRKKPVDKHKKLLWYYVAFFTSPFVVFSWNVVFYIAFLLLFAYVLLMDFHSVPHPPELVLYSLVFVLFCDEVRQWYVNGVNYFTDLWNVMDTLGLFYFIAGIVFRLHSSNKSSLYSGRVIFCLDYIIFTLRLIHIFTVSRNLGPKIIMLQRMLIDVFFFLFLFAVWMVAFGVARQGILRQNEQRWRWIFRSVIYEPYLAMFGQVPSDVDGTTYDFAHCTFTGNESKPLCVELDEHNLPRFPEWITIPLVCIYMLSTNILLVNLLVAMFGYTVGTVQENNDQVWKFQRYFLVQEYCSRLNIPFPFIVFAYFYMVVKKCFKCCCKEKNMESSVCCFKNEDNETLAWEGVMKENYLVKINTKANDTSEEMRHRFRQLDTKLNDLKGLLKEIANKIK

| SMILES | body weight gain [1] | insulin sensitivity [2] | short term food intake [3] | gastric emptying [4] | EC50 [5] | EC50 [6] | EC50 [7] | activation of "empty" cells [8] | activation of hTRPM8 [9] |
| --- | --- | --- | --- | --- | --- | --- | --- | --- | --- |
| O=CC=Cc1ccccc1 [cinnamaldehyde] | gained less weight | improved insulin sensitivity | reduction in short term food intake | delayed gastric emptying | ~60 µM |  |  |  |  |
| COc1ccc(C=O)cc1 [p-anisaldehyde] |  |  |  |  |  | ~100 µM | ~500 µM | no activation was observed | no activation was observed |
